Values quoted from earlier work as cited in paper PMC5019575 (European journal of inorganic chemistry, 2015).

How the values were obtained:
[1] = target: T1, di-Fe^III-DF3 (synthetic construct, UniProt Z9XD63LK24); assay: initial rates of oxidation, Lineweaver-Burk; assay type: biochemical; conditions: O2 (air), diferric protein, 100 mM HEPES/100 mM NaCl pH 7.0
T1 sequence (Z9XD63LK24 2-49): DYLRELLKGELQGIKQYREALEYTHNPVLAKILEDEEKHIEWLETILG

[2] = system: G4-DFtet; conditions: O2 (air), diiron protein, 100 mM HEPES/100 mM NaCl pH 7.0

| Structure (SMILES) | Km [1] | Km [2] |
| --- | --- | --- |
| CC(C)(C)c1cc(O)c(O)c(C(C)(C)C)c1 [3,5-DTBC, 3,5-di-tert-butylcatechol] | 2090 ± 310 µM | – |
| Nc1ccc(O)cc1 [4-AP, 4-aminophenol] | – | 830 ± 60 µM |
| Nc1ccc(N)cc1 [PPD, p-phenylenediamine] | 8870 ± 2580 µM | – |
